{
  "source": "patent US20160220557A1",
  "about": "“USE OF ACETYL-COA CARBOXYLASE INHIBITORS FOR TREATING ACNE VULGARIS” (PFIZER INC., priority 2013, published 2016)",
  "key": {"sebum production": {"system": "sebum production", "experiment": "Effect on sebum levels in healthy human volunteers (Sebumeter, Sebutape lipid classes)", "type": "in vivo", "conditions": "200 mg BID oral, 14 days", "description": "Otherwise healthy overweight or obese subjects were admitted to the Clinical Research Institute and dosed orally with Example 1 (200 mg BID) or placebo for 14 consecutive days. On two days pre-treatment and days 13 and 14 (post-treatment) of the study, sebum production was assessed by Sebumeter® measurements and sebum was collected for lipid component identification and quantification. In order to prepare the area of the skin where the Sebumeter® measurements and the sebum collection will be performed, the skin surface has to be cleansed from any lipids and debris. The targeted area on the forehead and the cheeks were gently blotted using an oil-absorbing tissue or gauze. After blotting, wipes or gauze pads presoaked in 70% ethanol solution were used to wipe the forehead and cheeks. Following cleansing, the skin was allowed to dry and sebum measurements were made using a clean, calibrated Sebumeter® SM 815 (Courage+Khazaka, Köln, Germany) in accordance with the manufactures directions at 5 minutes and 3 hours post-cleansing. Sebum levels determined by Sebumeter® are expressed as relative change from pre-treatment baseline for subjects treated with placebo and Example 1 and are presented in FIG. 4. The Sebutape® technique was used for sebum collection. At approximately 9 AM, following facial cleansing and the 5 minute post-cleanse sebumeter measurement, 4 Sebutape® strips were applied: 2 patches placed right and left on the forehead cranial of the middle line of the eye and 2 patches on the cheeks caudal of the middle line of the eye. The Sebutape® was peeled from its backing paper using defatted forceps and affixed to the surface with gentle pressure to assure adequate adhesion. Surgical gloves were to be worn by the person handling the tape. After 1 hour, the 4 patches were removed; the 2 left patches and the 2 right patches were placed in acid-washed, Teflon-capped screw-cap vials. Sebum lipid species were quantified from the Sebutape® samples by Metabolon using their TrueMass® technology platform. Analysis of these sebum samples enabled assessment of the effect of Example 1 vs. placebo on individual sebum lipid classes. […] Individual subject level and box plots depicting means with confidence intervals are shown for sebum triglycerides, wax esters, and free fatty acids (FIG. 5)."}, "clinical": {"experiment": "clinical", "conditions": "human, in vivo, po"}, "[1]": {"system": "de novo lipogenesis (DNL)", "experiment": "Suppression of DNL in healthy human volunteers", "type": "in vivo", "conditions": "dose-dependent"}, "[2]": {"biological_target": "T1, recombinant human ACC2 (rhACC2) (Homo sapiens, UniProt O00763, V2141I)", "T1 construct": "made in house; host or cells: CHO cells, tetracycline-induced (pcDNA5 FRT TO-TOPO)", "T1 sequence (O00763 whole entry V2141I)": "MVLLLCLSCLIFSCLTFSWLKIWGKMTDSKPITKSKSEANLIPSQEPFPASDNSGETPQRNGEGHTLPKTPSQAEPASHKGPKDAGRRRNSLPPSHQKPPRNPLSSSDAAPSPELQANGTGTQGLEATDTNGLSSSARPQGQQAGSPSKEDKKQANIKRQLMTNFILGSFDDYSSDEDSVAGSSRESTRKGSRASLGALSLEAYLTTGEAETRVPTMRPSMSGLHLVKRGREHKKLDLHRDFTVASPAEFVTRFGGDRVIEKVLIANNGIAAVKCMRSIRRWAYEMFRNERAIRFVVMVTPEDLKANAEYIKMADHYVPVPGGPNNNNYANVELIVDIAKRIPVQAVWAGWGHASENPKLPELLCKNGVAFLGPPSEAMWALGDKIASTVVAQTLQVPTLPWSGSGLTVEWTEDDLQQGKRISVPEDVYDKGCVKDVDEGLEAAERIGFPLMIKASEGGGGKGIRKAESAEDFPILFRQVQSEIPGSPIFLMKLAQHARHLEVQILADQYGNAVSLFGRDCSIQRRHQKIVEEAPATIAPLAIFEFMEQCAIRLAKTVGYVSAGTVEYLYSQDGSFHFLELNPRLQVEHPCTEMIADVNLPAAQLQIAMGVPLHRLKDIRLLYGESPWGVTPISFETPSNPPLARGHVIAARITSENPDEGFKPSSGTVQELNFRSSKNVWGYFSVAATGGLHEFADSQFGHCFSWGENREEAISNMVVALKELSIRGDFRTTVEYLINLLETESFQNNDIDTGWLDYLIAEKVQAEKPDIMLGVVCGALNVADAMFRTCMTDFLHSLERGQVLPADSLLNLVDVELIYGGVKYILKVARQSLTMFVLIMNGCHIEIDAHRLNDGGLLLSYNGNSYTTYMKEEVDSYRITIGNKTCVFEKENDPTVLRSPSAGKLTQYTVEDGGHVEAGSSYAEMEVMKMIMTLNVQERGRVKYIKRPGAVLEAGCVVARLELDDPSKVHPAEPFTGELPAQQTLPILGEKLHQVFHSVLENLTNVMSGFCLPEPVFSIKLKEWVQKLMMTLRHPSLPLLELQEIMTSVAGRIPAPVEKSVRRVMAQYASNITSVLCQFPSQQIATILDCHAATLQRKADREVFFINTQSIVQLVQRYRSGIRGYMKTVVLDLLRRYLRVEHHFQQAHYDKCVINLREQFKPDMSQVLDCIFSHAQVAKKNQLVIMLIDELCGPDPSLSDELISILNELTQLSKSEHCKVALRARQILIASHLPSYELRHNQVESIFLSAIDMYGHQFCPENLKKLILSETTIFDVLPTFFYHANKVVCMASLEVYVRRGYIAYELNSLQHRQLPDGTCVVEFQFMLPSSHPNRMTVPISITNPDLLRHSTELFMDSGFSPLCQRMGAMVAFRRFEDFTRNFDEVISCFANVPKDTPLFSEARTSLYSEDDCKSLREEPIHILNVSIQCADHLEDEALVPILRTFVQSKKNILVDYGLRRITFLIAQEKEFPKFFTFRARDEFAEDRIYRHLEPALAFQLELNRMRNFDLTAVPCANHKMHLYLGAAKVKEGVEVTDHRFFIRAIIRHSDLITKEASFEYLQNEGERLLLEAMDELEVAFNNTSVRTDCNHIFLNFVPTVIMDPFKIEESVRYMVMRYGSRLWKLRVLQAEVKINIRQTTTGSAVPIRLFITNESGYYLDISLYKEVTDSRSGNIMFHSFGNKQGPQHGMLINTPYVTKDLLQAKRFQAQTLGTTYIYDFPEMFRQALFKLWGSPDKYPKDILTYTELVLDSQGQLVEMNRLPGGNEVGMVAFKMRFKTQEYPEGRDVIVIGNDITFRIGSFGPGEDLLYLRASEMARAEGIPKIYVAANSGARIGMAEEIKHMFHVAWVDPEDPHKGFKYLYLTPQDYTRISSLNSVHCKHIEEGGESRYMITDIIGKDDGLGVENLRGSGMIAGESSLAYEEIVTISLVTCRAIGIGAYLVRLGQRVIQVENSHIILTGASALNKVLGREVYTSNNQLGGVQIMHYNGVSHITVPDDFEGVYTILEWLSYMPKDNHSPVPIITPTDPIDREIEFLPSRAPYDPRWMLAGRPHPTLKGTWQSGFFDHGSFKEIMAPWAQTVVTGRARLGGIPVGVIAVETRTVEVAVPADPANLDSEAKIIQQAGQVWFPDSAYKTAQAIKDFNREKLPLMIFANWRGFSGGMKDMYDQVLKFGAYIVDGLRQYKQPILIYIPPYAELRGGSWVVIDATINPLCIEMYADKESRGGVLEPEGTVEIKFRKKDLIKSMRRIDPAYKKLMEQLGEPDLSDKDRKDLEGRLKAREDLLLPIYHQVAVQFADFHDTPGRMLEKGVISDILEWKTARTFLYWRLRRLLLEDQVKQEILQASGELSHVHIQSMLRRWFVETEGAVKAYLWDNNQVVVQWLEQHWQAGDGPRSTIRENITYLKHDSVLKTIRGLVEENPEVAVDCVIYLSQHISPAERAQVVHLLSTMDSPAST", "experiment": "Transcreener ADP detection FP assay, recombinant human ACC2 inhibition", "type": "biochemical", "conditions": "recombinant human ACC2, 50 μM ATP; read-out: Transcreener Assay hACC2 IC50"}, "CYP1A2": {"biological_target": "T2, CYP1A2 (Homo sapiens, UniProt P05177)", "T2 sequence (P05177 1-516)": "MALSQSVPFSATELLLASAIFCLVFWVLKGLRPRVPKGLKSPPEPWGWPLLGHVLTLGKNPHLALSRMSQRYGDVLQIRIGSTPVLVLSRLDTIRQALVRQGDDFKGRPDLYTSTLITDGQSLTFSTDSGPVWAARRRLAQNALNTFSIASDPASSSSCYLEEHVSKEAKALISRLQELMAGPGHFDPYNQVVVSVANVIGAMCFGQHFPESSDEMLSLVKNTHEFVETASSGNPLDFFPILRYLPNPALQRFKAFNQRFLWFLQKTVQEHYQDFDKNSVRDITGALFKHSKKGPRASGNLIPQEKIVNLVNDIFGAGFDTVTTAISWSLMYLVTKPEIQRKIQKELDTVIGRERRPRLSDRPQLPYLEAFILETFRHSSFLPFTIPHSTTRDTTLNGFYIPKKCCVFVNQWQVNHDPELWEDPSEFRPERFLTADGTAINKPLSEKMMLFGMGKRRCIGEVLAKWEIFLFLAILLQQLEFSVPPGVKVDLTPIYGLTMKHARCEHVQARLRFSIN", "experiment": "biochemical"}, "CYP2C8": {"biological_target": "T3, CYP2C8 (Homo sapiens, UniProt P10632)", "T3 construct": "from tissue; host or cells: liver microsomes", "T3 sequence (P10632 1-490)": "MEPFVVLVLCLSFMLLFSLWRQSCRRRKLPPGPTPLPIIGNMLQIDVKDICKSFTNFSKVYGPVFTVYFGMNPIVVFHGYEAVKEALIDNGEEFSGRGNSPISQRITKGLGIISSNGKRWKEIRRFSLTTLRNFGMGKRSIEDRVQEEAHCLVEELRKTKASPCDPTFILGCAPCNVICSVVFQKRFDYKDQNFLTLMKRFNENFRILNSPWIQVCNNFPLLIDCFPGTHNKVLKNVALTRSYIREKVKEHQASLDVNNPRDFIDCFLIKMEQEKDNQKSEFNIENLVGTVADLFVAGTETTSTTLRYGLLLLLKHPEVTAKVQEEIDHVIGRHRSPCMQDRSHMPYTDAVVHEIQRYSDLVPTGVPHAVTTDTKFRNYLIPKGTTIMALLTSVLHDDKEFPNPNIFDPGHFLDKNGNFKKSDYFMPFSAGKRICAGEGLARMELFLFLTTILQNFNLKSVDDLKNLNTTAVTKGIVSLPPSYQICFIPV", "experiment": "P450 inhibition in liver microsomes with probe substrates", "type": "in vitro ADME"}},
  "note": "pIC50: −log10 of the molar value. Where “and” joins values, the source holds several entries; their conditions need not be identical. Equal values may be shown once.",
  "data": [
    {"smiles": "Cc1nc2ccc(C(=O)N3CCC4(CC3)CC(=O)c3c(cnn3C(C)C)C4)cc2[nH]1", "note": "[Example 1, 1-isopropyl-1′-(2-methyl-1H-benzo[d]imidazole-5-carbonyl)-4,6-dihydrospiro[indazole-5,4′-piperidin]-7(1H)-one]", "values": [
      {"measurement": "sebum free cholesterol change relative to PBO", "setting": "sebum production", "value": "no change"},
      {"measurement": "sebum squalene levels, increase relative to PBO", "setting": "sebum production", "value": 2.6, "unit": "fold"},
      {"measurement": "reduction of sebum production by Sebumeter from baseline", "setting": "sebum production; PBO adjusted", "value": "49% and > 49%"},
      {"measurement": "reduction of sebum free fatty acids relative to placebo", "setting": "sebum production; Sebutape", "value": "approximately 49%"},
      {"measurement": "reduction of sebum wax esters relative to placebo", "setting": "sebum production; Sebutape", "value": "~53", "unit": "%"},
      {"measurement": "decrease of sebum triglycerides", "setting": "sebum production; Sebutape, PBO adjusted", "value": 66, "unit": "%"},
      {"measurement": "levels of sebum free fatty acids (in words)", "setting": "sebum production; vs. placebo", "value": "reduced"},
      {"measurement": "levels of sebum wax esters (in words)", "setting": "sebum production; vs. placebo", "value": "reduced"},
      {"measurement": "half-life", "setting": "clinical", "value": "10 to 13", "unit": "h"},
      {"measurement": "suppression of DNL in healthy human volunteers", "setting": "[1]", "value": "up to 80%"},
      {"measurement": "pIC50", "setting": "[2]", "value": 7.35},
      {"measurement": "pIC50", "setting": "CYP1A2", "value": "< 4.52"},
      {"measurement": "pIC50", "setting": "CYP2C8", "value": "< 4.52"}
    ]}
  ]
}
